Legend:
Type in all cases: in vivo
[1] = test system: Trichachne insularis (Digitaria insularis); assay: Example 2: visual control of Trichachne insularis (Digitaria insularis), post emergence (Table 16); settings: visual control 0-100%, dose per numbered treatment
Description: (§1) The study was carried out in Brazil.
(§2) All treatments were applied in established weeds, post emergence, before weeds flowering. The treatments were applied using backpressure equipment (nozzles TEEJET8002) with a water consumption of 150 liters per hectare, 1.2 BAR.
(§3) 14, 21, 28, 35 and 42 days after application (“DAA”) evaluations were carried out, i.e. measuring the control of Trichachne insularis (Digitaria insularis) and its regrowth. The assessment consisted in a visual control level of weeds in which 0% related to absence of control and 100% to total control of weeds. The regrowth were assessed by comparing the emergence of new tillers in treatments versus the emergence of new tillers in check (non-treated control).
(§4) An analysis was carried out for viability rates applied through a variance analysis and a mean comparison test of Student—Newman-Keuls ([…]) with the ARM® statistical analysis package.

[2] = test system: Trichachne insularis (Digitaria insularis); assay: Example 2: regrowth of D. insularis, emergence of new tillers versus non-treated check (Table 17); set-up: scale not given here; settings: post emergence; for regrowth of D. insularis 35 DAA: 35 days after application; for regrowth of D. insularis 42 DAA: 42 days after application
Description: as §1, §2, §3, §4

Conyza bonariensis = assay: Example 3: control of Conyza bonariensis, viable weeds versus control plot, synergy by Colby; set-up: key: % control, viable weeds vs. untreated control plot; settings: weeds 20 cm height at application
Source text: Synergism can be described as an interaction where the combined effect of two or more compounds is greater than the sum of the individual effects of each of the compounds. The presence of a synergistic effect in terms of percent control, between two mixing partners (X and Y) can be calculated using the Colby equation (Colby, S. R., 1967, Calculating Synergistic and Antagonistic Responses in Herbicide Combinations, Weeds, 15, 21-22):
When the observed combined control effect is greater than the expected (calculated) combined control effect (E), then the combined effect is synergistic. The synergistic effect may also be present when the observed combined control effect is equal to the expected (calculates) combined control effect, especially when control values over 90 are calculated.
Analogously, the Colby's equation can be used to determine synergism of 3-way and higher mixtures:
as §1
The applications carried out by a back pressure sprayer with T-jet nozzles (XR-110.02) covering 200 liters per hectare. At the time of application, Conyza bonariensis weeds were 20 cm height. The results assessed by the comparison between viable weeds at the control plot and the viable weeds at the treatments plots. To the experiment, the plot consist of a 20 m2 area (5 meters length and 4 meters width).
The synergy was calculated by Colby formula and it expansion for three-way mixtures

CCSC(C)CC1CC(=O)C(/C(CC)=N/OC/C=C/Cl)=C(O)C1 (racemic) [Clethodim, (RS)-2-[(E)-1-[(E)-3-chloroallyloxyimino]propyl]-5-[2-(ethylthio)propyl]-3-hydroxycyclohex-2-en-1-one]
% of control, 28 DAA, Proved [1]: 62.5% | % of control, 35 DAA, Proved [1]: 60% | % of control, 42 DAA, Proved [1]: 52.5% | regrowth of D. insularis 35 DAA [2]: 28 | regrowth of D. insularis 42 DAA [2]: 33.75

O=C(O)CNCP(=O)(O)O [Glyphosate, N-(phosphonomethyl)glycine]
% of control, 28 DAA, Proved [1]: 8.75% | % of control, 35 DAA, Proved [1]: 6.25% | % of control, 42 DAA, Proved [1]: 3.75% | regrowth of D. insularis 35 DAA [2]: 61.25 | regrowth of D. insularis 42 DAA [2]: 67.5 | Control of Conyza bonariensis 7 DAA Field Results (Conyza bonariensis; listed as 1 Glyphosate): 32.50 | Control of Conyza bonariensis 7 DAA Field Results (Conyza bonariensis; listed as 3 Glyphosate): 15.00 | Control of Conyza bonariensis 15 DAA Field Results (Conyza bonariensis; listed as 1 Glyphosate): 65.00 | Control of Conyza bonariensis 15 DAA Field Results (Conyza bonariensis; listed as 3 Glyphosate): 27.50

CC(C)N(C)S(=O)(=O)NC(=O)c1cc(-n2c(=O)cc(C(F)(F)F)n(C)c2=O)c(F)cc1Cl [Saflufenacil, N′-{2-chloro-4-fluoro-5-[1,2,3,6-tetrahydro-3-methyl-2,6-dioxo-4-(trifluoromethyl)pyrimidin-1-yl]benzoyl}-N-isopropyl-N-methylsulfannide]
% of control, 28 DAA, Proved ([1]; listed as 05. Saflufenacil): 5% | % of control, 28 DAA, Proved ([1]; listed as 06. Saflufenacil): 6.25% | % of control, 35 DAA, Proved ([1]; listed as 05. Saflufenacil): 5% | % of control, 35 DAA, Proved ([1]; listed as 06. Saflufenacil): 6.25% | % of control, 42 DAA, Proved [1]: 2.5% | regrowth of D. insularis 35 DAA ([2]; listed as 05. Saflufenacil): 63.75 | regrowth of D. insularis 35 DAA ([2]; listed as 06. Saflufenacil): 66.5 | regrowth of D. insularis 42 DAA ([2]; listed as 05. Saflufenacil): 72.5 | regrowth of D. insularis 42 DAA ([2]; listed as 06. Saflufenacil): 78.75 | Control of Conyza bonariensis 7 DAA Field Results (Conyza bonariensis; listed as 4 Saflufenacil): 60.00 | Control of Conyza bonariensis 7 DAA Field Results (Conyza bonariensis; listed as 5 Saflufenacil): 86.25 | Control of Conyza bonariensis 15 DAA Field Results (Conyza bonariensis; listed as 4 Saflufenacil): 56.25 | Control of Conyza bonariensis 15 DAA Field Results (Conyza bonariensis; listed as 5 Saflufenacil): 73.75
